Here are results for 4 molecules from patent US7226915B2, “Diaminopyrroloquinazolines compounds as protein tyrosine phosphatase inhibitors” (Hoffmann-La Roche Inc., priority 2003, dated 2007).

Structures are written as SMILES. Structures can show the parent of a compound that is named as a salt.

This experiment concerns the target T1, Human PTP1B (1-321) (Homo sapiens, UniProt P18031).
T1 construct: Human PTP1B (1-321) was cloned from a human cDNA library; made in house; host or cells: E. coli
T1 sequence (P18031 1-321): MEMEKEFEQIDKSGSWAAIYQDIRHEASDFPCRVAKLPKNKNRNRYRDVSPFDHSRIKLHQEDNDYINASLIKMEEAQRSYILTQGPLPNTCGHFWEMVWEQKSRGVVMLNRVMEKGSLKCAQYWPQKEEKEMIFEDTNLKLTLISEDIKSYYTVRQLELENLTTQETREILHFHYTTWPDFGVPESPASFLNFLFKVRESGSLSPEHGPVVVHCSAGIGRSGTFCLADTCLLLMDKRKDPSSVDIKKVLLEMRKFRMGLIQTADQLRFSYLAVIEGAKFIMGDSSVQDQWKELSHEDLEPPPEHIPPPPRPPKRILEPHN
Description: In vitro inhibition of PTP1B (PTPase assay). It is filed as biochemical. As to conditions: one of two methods: phosphopeptide substrate TRDI(pY)E with Malachite Green, or DiFMUP fluorescence; pH 6.2; read-out: IC50 (PTP1B inhibitory activity). As for the experimental part: Human PTP1B (1-321) was cloned from a human cDNA library using conventional molecular biology techniques. The cDNA sequence was identical to the published human PTP1B sequence (Accession number M33689). The protein was expressed and purified from E. coli as described by Barford D. et. al J. Mol Biol (1994) 239, 726–730.
The measurement of PTPase activity was carried out using one of two methods:
The first method for the measurement of PTP1B inhibitory activity a tyrosine phosphorylated peptide based on the amino acid sequence of insulin receptor tyrosine autophosphorylation site 1146 (TRDI(pY)E) was used as substrate. The reaction conditions were as follows:
PTP1B (0.5–2 nM) was incubated with compound for 15 min in buffer containing 37.5 mM Bis-Tris buffer pH 6.2, 140 mMNaCl, 0.05% BSA and 2 mM DTT. The reaction was started by the addition of 50 μM substrate. After 20 min at room temperature (22–25° C.), the reaction was stopped with KOH and the amount of free phosphate measured using Malachite Green as previously described (Harder et al. 1994 Biochem J. 298; 395).
The second method was used for the measurement of general PTPase inhibitory activity across a panel of PTPases the substrate (6,8-difluoro-4-methylumbelliferyl phosphate (DiFMUP; from Molecular Probes) was used at the Km for each enzyme. The buffer conditions were identical as in the Malachite Green assay. The reaction was stopped with KOH. In this case the dephosphoryated product becomes fluorescent and the fluorescense read (Excitiation:360 mM/Emmission: 460 nM).
As to `Cc1ccc(-c2cc3nc(N)nc(NCCO)c3c3ccn(C)c23)s1` [Example 2, 2-[3-Amino-7-methyl-6-(5-methyl-thiophen-2-yl)-7H-pyrrolo[3,2-f]quinazolin-1-ylamino]-ethanol trifluoro-acetic acid salt], the IC50 came out at 7.1 µM.
In the case of `CN(C)c1nc(N)nc2cc(-c3ccccc3C(F)(F)F)c3c(ccn3C)c12` [Example 4, 7,N1,N1-Trimethyl-6-(2-trifluoromethyl-phenyl)-7H-pyrrolo[3,2-f]quinazoline-1,3-diamine trifluoro-acetic acid salt], the IC50 turned out to be 9.47 µM.
For the molecule `Cn1ccc2c3c(NCCCO)nc(N)nc3cc(-c3ccccc3C(F)(F)F)c21` [Example 6, 3-[3-Amino-7-methyl-6-(2-trifluoromethyl-phenyl)-7H-pyrrolo[3,2-f]quinazolin-1-ylamino]-propan-1-ol trifluoro-acetic acid salt], the IC50 was 10.2 µM.
The result for `Nc1nc(NCCO)c2c(cc(-c3ccccc3C(F)(F)F)c3c2ccn3CCO)n1` [Example 8, 2-[3-Amino-7-(2-hydroxy-ethyl)-6-(2-trifluoromethyl-phenyl)-7H-pyrrolo[3,2-f]quinazolin-1-ylamino]-ethanol trifluoro-acetic acid salt] reads 11.3 µM.
